# Assay results taken from patent publication US7544704B2, “Aryl-4-ethynyl-isoxazole derivatives” (Hoffmann-La Roche Inc., priority 2006, dated 2009).
# Target: T1, human GABA A receptor α5β3γ2 (Homo sapiens, UniProt P18507+P31644)
# T1 construct: expressed in transfected cells; host or cells: HEK293 (transiently transfected), membranes
# Assay: [3H]flumazenil competition binding to HEK293 cell membranes expressing human GABA A α5β3γ2
# Settings: displacement of [3H]flumazenil (0.5 nM), human α5β3γ2 transiently transfected in HEK293, means of two determinations; read-out: Ki[nM] hα5
# Description: Membrane Preparation and Binding Assay
# The affinity of compounds at GABA A receptor subtypes was measured by competition for [3H]flumazenil (85 Ci/mmol; Roche) binding to HEK293 cells expressing rat (stably transfected) or human (transiently transfected) receptors of composition α1β3γ2, α2β3γ2, α3β3γ2 and α5β3γ2.
# Cell pellets were suspended in Krebs-tris buffer (4.8 mM KCl, 1.2 mM CaCl2, 1.2 mM MgCl2, 120 mM NaCl, 15 mM Tris; pH 7.5; binding assay buffer), homogenized by polytron for ca. 20 sec on ice and centrifuged for 60 min at 4° C. (50000 g; Sorvall, rotor: SM24=20000 rpm). The cell pellets were resuspended in Krebs-tris buffer and homogenized by polytron for ca. 15 sec on ice. Protein was measured (Bradford method, Bio-Rad) and aliquots of 1 mL were prepared and stored at −80° C.
# Radioligand binding assays were carried out in a volume of […] (96-well plates) which contained […] of cell membranes, [3H]flumazenil at a concentration of 1 nM for α1, α2, α3 subunits and 0.5 nM for a5 subunits and the test compound in the range of […]. Nonspecific binding was defined by 10^−5 M diazepam and typically represented less than 5% of the total binding. Assays were incubated to equilibrium for 1 hour at 4° C. and harvested onto GF/C uni-filters (Packard) by filtration using a Packard harvester and washing with ice-cold wash buffer (50 mM Tris; pH 7.5). After drying, filter-retained radioactivity was detected by liquid scintillation counting. Ki values were calculated using Excel-Fit (Microsoft) and are the means of two determinations.
row,SMILES,Ki [nM]
1,"Cc1onc(-c2ccccc2)c1C#Cc1ccccc1N [Example 14, 2-(5-Methyl-3-phenyl-isoxazol-4-ylethynyl)-phenylamine]",38.4
2,"COC(=O)c1csc(C#Cc2c(-c3ccccc3)noc2C)n1 [Example 61, 2-(5-Methyl-3-phenyl-isoxazol-4-ylethynyl)-thiazole-4-carboxylic acid methyl ester]",31.9
3,"Cc1cccc(C#Cc2c(-c3ccccc3)noc2C)n1 [Example 35, 2-Methyl-6-(5-methyl-3-phenyl-isoxazol-4-ylethynyl)-pyridine]",39.3
4,"Cc1onc(-c2ccccc2)c1C#Cc1cc(C(=O)NC2CCOCC2)ccn1 [Example 28, 2-(5-Methyl-3-phenyl-isoxazol-4-ylethynyl)-N-(tetrahydro-pyran-4-yl)-isonicotinamide]",20.7
5,"COC(=O)c1ccnc(C#Cc2c(-c3ccccc3)noc2C)c1 [Example 17, 2-(5-Methyl-3-phenyl-isoxazol-4-ylethynyl)-isonicotinic acid methyl ester]",74.9
6,"Cc1onc(-c2ccc(Cl)cc2)c1C#Cc1ccccn1 [Example 59, 2-[3-(4-Chloro-phenyl)-5-methyl-isoxazol-4-ylethynyl]-pyridine]",54.5
7,"Cc1onc(-c2ccccc2)c1C#Cc1nc(C)n(-c2ccc(F)cc2)c1C [Example 57, 4-[1-(4-Fluoro-phenyl)-2,5-dimethyl-1H-imidazol-4-ylethynyl]-5-methyl-3-phenyl-isoxazole]",39.1
8,"Cc1onc(-c2ccccc2)c1C#Cc1cccc(C(=O)NC2CCOCC2)c1 [Example 8, 3-(5-Methyl-3-phenyl-isoxazol-4-ylethynyl)-N-(tetrahydro-pyran-4-yl)-benzamide]",91.6
9,"Cc1onc(-c2ccccc2)c1C#Cc1cccc(Cl)n1 [Example 30, 2-Chloro-6-(5-methyl-3-phenyl-isoxazol-4-ylethynyl)-pyridine]",71.9
10,"Cc1onc(-c2ccccc2)c1C#Cc1cc(C(F)(F)F)ccn1 [Example 38, 2-(5-Methyl-3-phenyl-isoxazol-4-ylethynyl)-4-trifluoromethyl-pyridine]",37
11,"Cc1onc(-c2ccccc2)c1C#Cc1cnccn1 [Example 34, 2-(5-Methyl-3-phenyl-isoxazol-4-ylethynyl)-pyrazine]",59.2
12,"Cc1ccnc(C#Cc2c(-c3ccccc3)noc2C)c1 [Example 37, 4-Methyl-2-(5-methyl-3-phenyl-isoxazol-4-ylethynyl)-pyridine]",48
13,"Cc1onc(-c2ccccc2)c1C#Cc1nccn1C [Example 21, 5-Methyl-4-(1-methyl-1H-imidazol-2-ylethynyl)-3-phenyl-isoxazole]",26
14,"COC(=O)c1ccccc1C#Cc1c(-c2ccccc2)noc1C [Example 12, 2-(5-Methyl-3-phenyl-isoxazol-4-ylethynyl)-benzoic acid methyl ester]",87.3
15,"Cc1onc(-c2ccccc2)c1C#Cc1ccc(Cl)cn1 [Example 42, 5-Chloro-2-(5-methyl-3-phenyl-isoxazol-4-ylethynyl)-pyridine]",81.7
16,"Cc1ccc(C#Cc2c(-c3ccccc3)noc2C)nn1 [Example 19, 3-Methyl-6-(5-methyl-3-phenyl-isoxazol-4-ylethynyl)-pyridazine]",26.6
17,"Cc1onc(-c2ccccc2)c1C#Cc1ccc(N)cn1 [Example 41, 6-(5-Methyl-3-phenyl-isoxazol-4-ylethynyl)-pyridin-3-ylamine]",55.7
18,"CCc1ccnc(C#Cc2c(-c3ccccc3)noc2C)c1 [Example 44, 4-Ethyl-2-(5-methyl-3-phenyl-isoxazol-4-ylethynyl)-pyridine]",38.9

row,SMILES,Ki [nM]
1,"Cc1onc(-c2ccccc2)c1C#Cc1cc(-c2ccc(F)cc2)n(C)n1 [Example 53, 4-[5-(4-Fluoro-phenyl)-1-methyl-1H-pyrazol-3-ylethynyl]-5-methyl-3-phenyl-isoxazole]",52.6
2,"Cc1ccc(C#Cc2c(-c3ccccc3)noc2C)nc1 [Example 31, 5-Methyl-2-(5-methyl-3-phenyl-isoxazol-4-ylethynyl)-pyridine]",45.5
3,"Cc1csc(NC(=O)c2ccnc(C#Cc3c(-c4ccccc4)noc3C)c2)n1 [Example 29, 2-(5-Methyl-3-phenyl-isoxazol-4-ylethynyl)-N-(4-methyl-thiazol-2-yl)-isonicotinamide]",90.1
4,"Cc1cnc(C)c(C#Cc2c(-c3ccccc3)noc2C)n1 [Example 26, 2,5-Dimethyl-3-(5-methyl-3-phenyl-isoxazol-4-ylethynyl)-pyrazine]",10.4
5,"Cc1cccnc1C#Cc1c(-c2ccccc2)noc1C [Example 39, 3-Methyl-2-(5-methyl-3-phenyl-isoxazol-4-ylethynyl)-pyridine]",28.9
6,"Cc1c[nH]nc1C#Cc1c(-c2ccccc2)noc1C [Example 23, 5-Methyl-4-(4-methyl-1H-pyrazol-3-ylethynyl)-3-phenyl-isoxazole]",53
7,"Cc1onc(-c2ccccc2)c1C#Cc1nc(C)n(-c2cc(F)cc(F)c2)c1C [Example 56, 4-[1-(3,5-Difluoro-phenyl)-2,5-dimethyl-1H-imidazol-4-ylethynyl]-5-methyl-3-phenyl-isoxazole]",23.5
8,"Cc1onc(-c2ccccc2)c1C#Cc1ccccn1 [Example 1, 2-(5-Methyl-3-phenyl-isoxazol-4-ylethynyl)-pyridine]",47.9
9,"CCOC(=O)c1c(C)nc(C#Cc2c(-c3ccccc3)noc2C)n1C [Example 50, 3,5-Dimethyl-2-(5-methyl-3-phenyl-isoxazol-4-ylethynyl)-3H-imidazole-4-carboxylic acid ethyl ester]",7.3
10,"Cc1onc(-c2ccccc2)c1C#Cc1cnc2ccccc2n1 [Example 45, 2-(5-Methyl-3-phenyl-isoxazol-4-ylethynyl)-quinoxaline]",84.4
11,"Cc1ncc(C#Cc2c(-c3ccccc3)noc2C)[nH]1 [Example 22, 5-Methyl-4-(2-methyl-3H-imidazol-4-ylethynyl)-3-phenyl-isoxazole]",77.2
12,"Cc1onc(-c2ccccc2)c1C#Cc1ncc(C)n1-c1ccccc1 [Example 33, 5-Methyl-4-(5-methyl-1-phenyl-1H-imidazol-2-ylethynyl)-3-phenyl-isoxazole]",23.7
13,"Cc1onc(-c2ccccc2)c1C#Cc1cnc(N)cn1 [Example 47, 5-(5-Methyl-3-phenyl-isoxazol-4-ylethynyl)-pyrazin-2-ylamine]",37.2
14,"Cc1onc(-c2ccccc2)c1C#Cc1ncc(-c2ccccc2)n1C [Example 32, 5-Methyl-4-(1-methyl-5-phenyl-1H-imidazol-2-ylethynyl)-3-phenyl-isoxazole]",28.4
15,"Cc1onc(-c2ccccc2)c1C#Cc1nc2n(c1C)CCCC2 [Example 52, 3-Methyl-2-(5-methyl-3-phenyl-isoxazol-4-ylethynyl)-5,6,7,8-tetrahydro-imidazo[1,2-a]pyridine]",15.5
16,"CCOC(=O)c1nc(C)sc1C#Cc1c(-c2ccccc2)noc1C [Example 24, 2-Methyl-5-(5-methyl-3-phenyl-isoxazol-4-ylethynyl)-thiazole-4-carboxylic acid ethyl ester]",85.2
17,"Cc1onc(-c2ccccc2)c1C#Cc1cc(C(=O)NCC2CC2)ccn1 [Example 27, N-Cyclopropylmethyl-2-(5-methyl-3-phenyl-isoxazol-4-ylethynyl)-isonicotinamide]",39.8
18,"Cc1onc(-c2ccccc2)c1C#Cc1cncc(N)n1 [Example 46, 6-(5-Methyl-3-phenyl-isoxazol-4-ylethynyl)-pyrazin-2-ylamine]",18.3
